Data reported in patent US6942979B1, “Method for screening substances capable of modulating the activity of a TRAAK potassium channel” (Centre National de la Recherche Scientifique-CNRS, priority 1998, dated 2005).
Values belong to the compound of their own block, whether it stands above or below them.

Legend:
Type in all cases: cell-based
[1] = molecular target: T1, TRAAK channel (Mus musculus, UniProt O88454); assay: TRAAK currents in transfected COS cells, imposed voltage technique; settings: concentration of 10 μM
T1 construct: an open reading phase of 1197 nucleotides coding for a polypeptide of 398 residues; expressed in transfected cells; host or cells: COS cells (transient)
T1 sequence (O88454 1-398): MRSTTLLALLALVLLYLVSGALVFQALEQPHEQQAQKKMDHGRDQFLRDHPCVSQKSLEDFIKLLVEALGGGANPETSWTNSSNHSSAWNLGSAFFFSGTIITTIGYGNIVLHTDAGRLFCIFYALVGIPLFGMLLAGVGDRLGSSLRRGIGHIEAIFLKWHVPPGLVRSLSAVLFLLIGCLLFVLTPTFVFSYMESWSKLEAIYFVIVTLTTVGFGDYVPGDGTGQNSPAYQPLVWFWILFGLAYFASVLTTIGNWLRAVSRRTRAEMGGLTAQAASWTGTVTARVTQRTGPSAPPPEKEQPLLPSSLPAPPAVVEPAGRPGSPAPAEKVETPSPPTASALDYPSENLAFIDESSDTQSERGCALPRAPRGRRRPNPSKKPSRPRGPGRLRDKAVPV

[2] = molecular target: T1, TRAAK channel; assay: TRAAK currents in Xenopus oocytes injected with TRAAK cRNA, imposed voltage technique
Experimental: In (a): the oocytes were maintained at a potential of −80 mV then the currents were recorded following potential jumps from −150 to +50 mV by increments of 20 mV. The recordings were performed in an external medium containing a K^+ concentration of 2 mM or 74 mM. In (b): current-potential relation was according to the same experimental set-up as in (a). In (c): potential reversal (Erev) of the TRAAK currents were a function of the external K^+ concentration. In (d): currents recorded on COS cells transfected by TRAAK according to the same protocol as in (a). In (e): current-potential relation was according to the same experimental set-up as in (d).
(§1) For the functional study, the coding sequence of TRAAK was inserted in the vector pEXO and a complementary RNA (cRNA) was synthesized from this construction and injected in Xenopus oocytes. For expression in the COS cells, the TRAAK sequence was subcloned in an expression vector under the control of a eukaryote promoter and transfected into the cells. An absent non-inactivating current from the oocytes and the control cells was measured by the imposed voltage technique as represented in FIG. 4. The activation was instantaneous and could not be resolved because it was masked by the capacitive discharge of the current recorded at the beginning of the potential jump. The current-potential relation rectified in the outgoing direction when the external K^+ concentration was equal to 2 mM. Incoming currents were observed when the external K^+ concentration was increased. At all concentrations, the current-potential curves followed the Goldman-Hodgkin-Katz relation. […] The TRAAK channel is selective for potassium. Reversal of the current potential follows the equilibrium potential of K^+ and changing the concentration of K^+ by 10 leads to a change in the potential inversion value conforming to the value predicted by Nernst's equation (48.7±0.7 mV times 10, n=4).

[3] = molecular target: T2, TASK channel (Homo sapiens, UniProt O14649); assay: TASK currents in transfected COS cells before and after AA; settings: intact cell configuration
T2 construct: expressed in transfected cells; host or cells: COS cells (transient)

[4] = system: control cells (CD8); assay: Application of AA on control cells (CD8)
[5] = molecular target: T3, TWIK-1 channel (Homo sapiens, UniProt O00180); assay: TWIK-1 currents in transfected COS cells before and after AA; settings: intact cell configuration
T3 construct: expressed in transfected cells; host or cells: COS cells (transient)
T3 sequence (O00180 1-336): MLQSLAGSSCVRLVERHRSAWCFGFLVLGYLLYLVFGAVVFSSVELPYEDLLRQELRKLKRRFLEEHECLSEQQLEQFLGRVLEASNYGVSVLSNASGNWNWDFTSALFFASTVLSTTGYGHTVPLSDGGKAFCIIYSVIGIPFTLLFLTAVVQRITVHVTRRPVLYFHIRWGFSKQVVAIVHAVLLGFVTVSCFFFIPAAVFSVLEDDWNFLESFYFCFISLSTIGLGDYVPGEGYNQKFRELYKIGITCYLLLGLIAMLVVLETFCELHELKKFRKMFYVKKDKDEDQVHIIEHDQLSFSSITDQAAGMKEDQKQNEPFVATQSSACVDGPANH

[6] = molecular target: T4, TREK-1 channel (Mus musculus, UniProt P97438); assay: TREK-1 currents in transfected COS cells, patch recording; settings: AA 10 μM applied in the external medium, transfected COS cells
T4 construct: expressed in transfected cells; host or cells: COS cells
T4 sequence (P97438 with tags, fused parts or gaps isoform P97438-2 T63A/R366M): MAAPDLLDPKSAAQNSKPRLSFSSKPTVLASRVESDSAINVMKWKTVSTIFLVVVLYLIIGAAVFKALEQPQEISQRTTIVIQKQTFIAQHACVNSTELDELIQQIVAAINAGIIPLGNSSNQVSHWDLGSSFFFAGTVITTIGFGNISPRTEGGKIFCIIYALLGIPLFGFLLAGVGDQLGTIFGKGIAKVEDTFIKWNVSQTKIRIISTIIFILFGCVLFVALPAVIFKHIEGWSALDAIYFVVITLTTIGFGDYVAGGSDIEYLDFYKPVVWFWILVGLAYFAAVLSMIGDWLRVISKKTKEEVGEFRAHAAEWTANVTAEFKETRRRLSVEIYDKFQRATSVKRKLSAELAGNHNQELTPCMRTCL
Experimental: (§2) In FIG. 8a: the activity of TREK-1 was recorded in the attached cell configuration. The patch was stimulated by a potential ramp lasting 800 msec every 5 seconds. The currents were measured at 80 mV. The applications of arachidonic acid (AA, 10 μM) are indicated by the horizontal bars. During the experiment, the patch was stimulated by tensions of 50 mmHg (indicated by the arrows). At 9 minutes, the patch was excised in the inside-out configuration. In FIG. 8b: current-potential relations corresponding to the experiment illustrated in FIG. 8a is shown. In FIG. 8c: activity of TREK-1 in the attached cell configuration with 10 μM AA in the pipette can be seen. The potential ramp lasted 800 msec and the currents were measured at 80 mV. In FIG. 8d: single-channel current-potential relations at the moment at which the pipette was placed on the membrane or after 20 minutes and 1 minute after the patch was excised in the inside-out configuration. […] The current was measured at 80 mV. In FIG. 8f: AA had no effect on the TREK-1 current measured in the intact cell when it was in the pipette. The current was measured 30 minutes after the patch was broken (control tracing) by a potential ramp of 800 msec. The current was then measured after an application of AA of 1 minute in the external medium (AA tracing).
(§3) FIGS. 10a and b are graphs showing the effect of riluzole on the TREK-1 and TRAAK […] currents. The current-potential relations were obtained as in FIG. 9a above and after application ofriluzole (100 μM) on the transfected COS cells.

[7] = molecular target: T5, TREK-1 channel (Mus musculus, UniProt P97438, R381M/T78A); assay: as above
T5 construct: expressed in transfected cells; host or cells: COS cells
T5 sequence (P97438 with tags, fused parts or gaps isoform P97438-2 T63A/R366M): T4 sequence (P97438 with tags, fused parts or gaps isoform P97438-2 T63A/R366M)
Experimental: as §2, §3

[8] = molecular target: T1, TRAAK channel; assay: TRAAK currents in transfected COS cells, imposed voltage technique; design: increase in the current induced by AA: dose or concentration left out as unconfirmed
Experimental: as §1, with “The maintenance potential was -80 mV. In FIG. 9b: dose-effect relation ofthe activation” for “For the functional study, the coding sequence”, “by AA is shown. In FIG. 9c: current-potential relations obtained as in FIG. 9a” for “was inserted”, “outside-out configuration are shown. […] In FIG. 9d: a histogram represents the coefficient of augmentation of the currents obtained after application of various fatty acids (10 μM). […] The coefficient of augmentation is indicated in each case. […] The current-potential relations were obtained as in FIG. 9a above” for “vector pEXO”, “after application ofriluzole (100 μM) on the transfected COS cells. […]” for “a complementary RNA (cRNA) was synthesized from this construction and injected in Xenopus oocytes.”

[9] = riluzole 100 μM, transfected COS cells

T2 sequence (O14649 whole entry): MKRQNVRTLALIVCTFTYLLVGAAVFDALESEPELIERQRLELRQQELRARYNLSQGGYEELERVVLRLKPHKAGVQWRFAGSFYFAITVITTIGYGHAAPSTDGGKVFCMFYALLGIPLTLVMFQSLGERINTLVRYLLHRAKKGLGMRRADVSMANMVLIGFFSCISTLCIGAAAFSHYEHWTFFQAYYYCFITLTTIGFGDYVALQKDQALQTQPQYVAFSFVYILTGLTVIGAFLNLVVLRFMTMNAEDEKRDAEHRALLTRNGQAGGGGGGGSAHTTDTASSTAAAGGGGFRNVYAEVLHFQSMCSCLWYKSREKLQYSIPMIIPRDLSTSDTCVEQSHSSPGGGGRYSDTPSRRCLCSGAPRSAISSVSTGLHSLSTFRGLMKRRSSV

activation of the TRAAK channel by fatty acids and derivatives [1]: activation
SMILES: CCCCC/C=C\C/C=C\CCCCCCCC(=O)O [linoleic, linoleic acid]

sensitivity of TRAAK to potassium channel blocking agents ([2]; 100 mM): insensitive
SMILES: C=C[C@H]1C[N@@]2CC[C@H]1C[C@H]2[C@H](O)c1ccnc2ccc(OC)cc12 [quinine]

activation of the TRAAK channel by fatty acids and derivatives [1]: no effect
SMILES: CCCCCCCCCCCCCCCC(=O)O [palmitic, palmitic acid]

activation of the TRAAK channel by fatty acids and derivatives [1]: no effect
SMILES: CCCCCCCCCCCCCCCCCC(=O)O [stearic, stearic acid]

activation of the TRAAK channel by fatty acids and derivatives [1]: no effect
SMILES: CCCCCCCCCCCCCCCCCCCC(=O)O [arachidic, arachidic acid]

activation of the TRAAK channel by fatty acids and derivatives [1]: activation
SMILES: CC/C=C\C/C=C\C/C=C\C/C=C\C/C=C\C/C=C\CCC(=O)O [docosohexaenoic, docosohexaenoic acid]

effect of riluzole on the TREK-1 channel [7, 9]: opener
effect of riluzole on the TRAAK channel [8, 9]: opener
SMILES: Nc1nc2ccc(OC(F)(F)F)cc2s1 [Riluzole, riluzole]

Second part, the compound before the results:

SMILES: CCCCCCCC/C=C\CCCCCCCC(=O)O [oleic, oleic acid]
activation of the TRAAK channel by fatty acids and derivatives [1]: activation

SMILES: CCCCC/C=C\C/C=C\C/C=C\C/C=C\CCCC(=O)O [AA, arachidonic acid]
effect of activation by AA on TASK [3]: No effects of the same type
effect of AA on control cells [4]: no effect
effect of activation by AA on TWIK-1 [5]: No effects of the same type
activation of TREK-1 by AA [6]: activated
activation of TREK-1 by internal AA ([7]; AA in the pipette, intact cell, dialyzed up to 30 minutes): did not activate
activation of the TRAAK channel by AA ([8]; AA 10 μM (FIG. 9a), transfected COS cells, reversible, concentration dependent): activated
increase in the current induced by AA ([8]; AA perfusion with mixture of inhibitors of AA metabolism, at +50 mV, n=3): 6.6±0.5 times

SMILES: CC[N+](CC)(CC)CC [tetraethylammonium]
sensitivity of TRAAK to potassium channel blocking agents ([2]; 1 mM): insensitive

SMILES: Nc1ccncc1 [4-aminopyridine]
sensitivity of TRAAK to potassium channel blocking agents ([2]; 1 mM): insensitive

SMILES: CCCCC/C=C\C/C=C\C/C=C\C/C=C\CCCC(=O)OC [AA-ME]
activation of the TRAAK channel by fatty acids and derivatives [1]: inactive

SMILES: CCC=CCC=CCC=CCC=CCC=CCC=CCCC(=O)OC [DOHA-ME]
activation of the TRAAK channel by fatty acids and derivatives [1]: inactive

SMILES: CCCCC/C=C\C/C=C\C/C=C\C/C=C\CCCCO [AA-OH]
activation of the TRAAK channel by fatty acids and derivatives [1]: inactive
